Bridge positions count the residues as written; N and C are the ends. Ends that are not written are not given here. I, II: the chains in the order shown.
Experiments:
RET = RET phosphorylation assay in PC12-E2 cells; format: cell-based; conditions: PC12-E2, 10 min; ARTN 2.1 nM, artefin 12.64 μM; phosphotyrosine/total RET by immunoblot; control = 100%
Experimental: The pheochromocytoma cell line PC12-E2 (gift from Dr. Klaus Seedorf, Hagedorn Research Institute, Gentofte Municipality, Denmark) was propagated in Dulbecco’s modified Eagle’s medium (DMEM) supplemented with 5% (v/v) fetal calf serum (FCS), 10% (v/v) horse serum (HS), 1% (v/v) glutamax, 100 U/ml penicillin, and 100 μg/ml streptomycin. Cells were grown at 37°C in a humidified atmosphere containing 5% CO2.
Phosphorylation of RET was assayed in PC12-E2 cells. Cells were seeded at a density of 7 × 10^4 cells/cm^2 in 6 cm cell culture dishes (Nunc) and grown for 24 h. Cells were then grown in starvation medium (growth media with FCS switched to 1%) for 4 h before being stimulated with recombinant human ARTN (2.1 nM) or artefin (12.64 μM) for 10 min. Non-stimulated cells served as a control. Cell lysates were separated by SDS-polyacrylamide gel electrophoresis (SDS-PAGE) and transferred to an Immobilon-P membrane (Millipore, Billerica, MA, United States). Membranes were stained with mouse anti-phosphotyrosine antibody (BD Transduction Lab, New York City, NY, United States; 1:500) or RET (goat anti-mouse antibody, R&D systems, 1:500), followed by incubation with HRP-conjugated anti-mouse IgG. […] RET phosphorylation was determined as the ratio between phosphorylated and total RET. […]

[1] = test system: RET; cerebellar granule neurons (CGNs); test: Neurite outgrowth in CGNs transfected with dominant negative RET (dnRET); format: cell-based, Wistar rat; conditions: 24 h, P2-d 8 μg/ml, ARTN 0.21 nM, artefin 1.4 μM; for neurite outgrowth in mock-transfected neurons: empty vector, versus control
Experimental: Cerebellar granule neurons (CGNs) were prepared from 7-day-old Wistar rat pups (Charles River Laboratories, Sulzfeld, Germany) as previously described ([Schousboe et al., 1989]). Briefly, pups were decapitated, and the cerebellum was removed and cleared from blood vessels and meninges in ice-cold modified Krebs-Ringer buffer. The cerebellum was dissociated by chopping and trypsinization. Cells were washed in Krebs-Ringer buffer containing DNAse I (Sigma, St. Louis, MO, United States) and soybean trypsin inhibitor (Sigma) to stop trypsinization, and the remaining tissue pieces were pelleted by centrifugation. Cells were then washed in Krebs-Ringer buffer containing Ca^2+ and Mg^2+ and re-suspended in appropriate Neurobasal^TM medium (Invitrogen, Taastrup, Denmark) with supplements depending on the experiment.
To evaluate the involvement of NCAM and RET in neurite outgrowth induced by either ARTN or artefin, CGNs (3 × 10^6 per transfection) were transfected with 3 μg DNA using a Nucleofector^TM 2b device and a Rat Neuron Nucleofector Kit (Amaxa, Inc., Gaithersburg, MD, United States). A kinase-deleted dominant negative RET insert was obtained by direct PCR using a commercially available clone (IRAKp961P02132Q; RZPD, Berlin, Germany) encoding full-length mouse RET coding sequence 586–3807 nt. as template. The upper primer […] contained a NheI restriction site and Kozak sequence, and the lower primer […] encoded Streptag II and NotI restriction sites. The dominant negative RET insert and the pcDNA5/FRT expression vector containing the Flp-In system were cut with NheI and NotI restriction enzymes, purified, ligated using the Rapid DNA Ligation Kit (Roche, Basel, Switzerland), and transfected into One Shot TOP10 E. coli (Invitrogen, Taastrup, Denmark). E. coli colonies containing the dominant negative RET insert were identified by PCR, and one insert-positive colony was used for plasmid purification. The identity of the purified plasmid was verified by restriction cutting and sequencing of the insert. For NCAM knock down, we used a pENTR vector containing the shRNA expression cassette for NCAM knock down ([Hansen et al., 2007]). An empty vector was used as a control. To identify transfected neurons, all transfections were performed as co-transfections with 0.5 μg pEGFP-N1, an expression vector encoding the enhanced variant of green fluorescent protein (GFP; Clontech, Palo Alto, CA, United States). Transfected CGNs were seeded in Neurobasal^TM-A medium supplemented with 2% (v/v) B27, 5% (v/v) FCS, and 2 mM Glutamax at a density of 1 × 10^5 cells/cm^2.
To estimate neurite outgrowth, neurons were fixated 24 h after stimulation and stained with rabbit anti-growth-associated-protein-43 (GAP-43) antibody (Chemicon International, Inc., Temecula, CA, United States) or anti-GFP antibody (for transfection experiment) overnight at 4°C followed by incubation with secondary Alexa-conjugated goat anti-rabbit antibodies (Invitrogen, Taastrup, Denmark). In case of experiments with plasmid transfection, the transfection efficiency was ca. 20% of total cells and the neurite outgrowth was evaluated only in GFP-positive, i.e., transfected, cells. For representative pictures, cells were additionally co-stained with Hoechst 33258.
Computer-assisted fluorescent microscopy was performed using a Nikon Diaphot 300 inverted microscope (Nikon) equipped with a Nikon Plan 20× objective and coupled to a video camera (Grundig Electronics, Germany). For each condition in each experiment, including the experiment with transfections, images of approximately 200 cells were recorded in systematic series of fields of view, and neurite outgrowth was quantified using a stereological approach as previously described ([Rønn et al., 2000]).
FIGURE 7 Neuritogenic effect of ARTN and artefin in (A) dominant negative RET or (B) knock down NCAM-expressing CGNs. […]

Row | Molecule | RET phosphorylation compared to unstimulated control (RET) [%] | neurite outgrowth in dnRET-transfected neurons [1] | neurite outgrowth in mock-transfected neurons [1]
1 | I: RSPHDLSLASLLGAGKK-NH2 / II: RSPHDLSLASLLGAGK / III: RSPHDLSLASLLGAG / IV: RSPHDLSLASLLGAG (amide I:16-IV:C, I:17-II:C, II:16-III:C; C-terminus assumed) [artefin] | ~500 | abrogated in dnRET-transfected neurons (p < 0.01 versus artefin alone | significantly increased neurite outgrowth in mock-transfected neurons (p < 0.01 versus control)
2 | recombinant human Artemin (ARTN) (ligand, UniProt Q5T4W7 108-220, looked up, Artemin (ARTN), human, UniProt D3DPX9; source: bought: R&D Systems) AGGPGSRARAAGARGCRLRSQLVPVRALGLGHRSDELVRFRFCSGSCRRARSPHDLSLASLLGAGALRPPPGSRPVSQPCCRPTRYEAVSFMDVNSTWRTVDRLSATACGCLG | ~600 | abolished in neurons expressing dnRET (p < 0.05 versus ARTN alone | significantly increased by ARTN in mock-transfected neurons (p < 0.05 versus control)
